Test results: PMC11016601, “Exploring the bioaccessibility and intestinal absorption of major classes of pure phenolic compounds using in vitro simulated gastrointestinal digestion” (Heliyon, 2024)
Converted amounts (≈) assume the structure as drawn. “And” between values parts separate entries of the source, which are not always exact repeats. Equal entries are not always repeated. Where two headings read alike, the source gives them in different places. Marks after values point to notes of the source that are not given here.

Legend:
[1] = design: method as in earlier work; conditions: cited from earlier work
[2] = In vitro simulated gastrointestinal digestion (SGD, INFOGEST 2.0): concentration and bioaccessibility by UHPLC-DAD-MSn; conditions: for Bioaccessibility (%), initial solution (IS): reference
Method: Preliminary solubility tests in different solvents, namely water, sodium phosphate buffer (26.8 mM, pH 6.1), ethanol, and also a mixture of ethanol with both water and sodium phosphate buffer, were carried out for each PC (data not shown), to prevent erroneous data arising from compounds precipitation. Ethanol percentages used in these preliminary solubility tests were 10, 15, and 20% (v/v).
Each PC solubilized in ethanol:water (15% v/v) was then submitted to an in vitro SGD (INFOGEST 2.0), according to a standardized protocol (Fig. 2). In order to determine whether the interaction between the compounds and enzymes led to an underestimation of their content, each PC solution was submitted to the same digestion procedure, replacing the enzyme solutions with water, which were designed as controls, henceforth this will be the term used. Each sample and control were submitted to three independent in vitro digestion simulations, and after each digestion phase, a sample/control was collected and further analyzed and quantified by UHPLC-DAD-MSn.
(§1) Mouth digestion of each PC solution (1 mL) was diluted in 0.8 mL of simulated salivary fluid (SSF) and α-amylase (75 U mL-1). Then, the mixture was incubated for 2 min at 37 °C under agitation (200 rpm). In order to start gastric digestion, pH was adjusted to 3.0 using 1 M aqueous HCl and then, a pepsin solution (2000 U mL-1) and simulated gastric fluid (SGF) were added. Subsequently, the mixture was incubated for 2h, at 37 °C and 130 rpm orbital agitation for the stomach digestion. Finally, the small intestine digestion simulation was performed after pH adjustment to 7.0 using 1 M aqueous […] and the addition of pancreatin (100 U mL-1), bile salts solution (10 mM) and simulated intestinal fluid (SIF), during 2 h, at 37 °C with 45 rpm orbital agitation. Natural small intestine absorption was also simulated, by placing the remaining sample in a dialysis membrane, and immersed in distilled water overnight at room temperature.
At each sampling point, an aliquot (0.5 mL) from each of the three replicates was collected. The enzymatic activity was stopped immediately by adding pure methanol to each aliquot (1:1, v/v) to promote enzyme precipitation and subsequently centrifuged at 10 000 g and 4 °C for 5 min. The supernatants were filtered with a 0.2 μm nylon filter. To determine the concentration of each sample or control, it was considered the following dilution factor – 1:2, 1:4 and 1:8 for oral, gastric and intestinal digestion phase, respectively.
The bioaccessibility percentage (B%) of each PC was calculated using equation (1):(1) B(%)=[DS]/[IS]×100 where IS is the initial concentration of PCs in ethanol:water (15% v/v) solutions, DS is the concentration of each collected sample or control (without enzymes).
(§2) The values of B% and IA% were the average of the three replicates performed, with the calculated standard deviation.
PCs were analyzed in a UHPLC system equipped with a variable loop Accela autosampler (set at 16 °C), an Accela 600 LC pump, and an Accela 80 Hz photo diode array detector (DAD) (Thermo Fisher Scientific, San Jose, CA, USA). Each sample was prepared in methanol:water (1:1, v/v) and filtered through a 0.2 μm nylon syringe filter. […] The mobile phase was composed of acetonitrile (A) and water:acetonitrile (99:1, v/v) (B), both with 0.1 % of formic acid. The gradient elution was performed as follows: 0–1min: 99% B; 1–17 min: 99-73% B, 17–20 min: 73-0% B, 20–25 min: 0–99% B, followed by re-equilibration of the column at 99% B for 4 min.

[3] = Simulation of intestinal absorption using a dialysis membrane (3 kDa) after in vitro SGD
Source text: HPLC-grade methanol, water, and acetonitrile were supplied by Fisher Scientific Chemicals. The enzymes α-amylase (A1031), pepsin from porcine stomach mucosa (P7012), pancreatin from porcine pancreas (P7545), and bile salts (B863) were purchased from Sigma-Aldrich (Taufkirchen, Germany). The rabbit gastric extract (RGE15) with gastric lipase activity was purchased from Lipolytech (Marseille, France). The ethanol was purchased from Merck (Algés, Portugal). A dialysis membrane with a molecular pore size of 3 kDa was purchased from Spectra/Pro (Spectrum Lab, Breda, Netherlands).
as §1
Furthermore, to determine the intestinal absorption, the aliquots collected inside the dialysis membrane were analyzed. The concentration of these samples (from inside of the membrane) corresponds to the amount of each PC that has not passed through to the outside of the membrane.
as §2

Caco-2 cell monolayers = conditions: Caco-2 monolayers; cited from earlier work
[4] = design: method as in PMID 19375897; conditions: cited from earlier work
[5] = design: method as in doi:10.1016/J.JFF.2016.08.003; conditions: cited from earlier work
[6] = controls (without enzymes), gastric phase
[7] = controls (without enzymes), initial solution
[8] = controls (without enzymes), intestinal phase
[9] = controls (without enzymes), oral phase
[10] = samples with enzymes, after gastric digestion pH 3.0
[11] = samples with enzymes, after intestinal digestion pH 7.0
[12] = samples with enzymes, after oral digestion
[13] = samples with enzymes, gastric phase
[14] = samples with enzymes, intestinal phase
[15] = samples with enzymes, oral phase
[16] = samples, initial ethanol:water (15% v/v) solution

| SMILES | Bioaccessibility (%), oral phase (O) ([2]; 2 min) | Bioaccessibility (%), gastric phase (G) [2, 6] | Concentration, gastric phase (G) [2, 6] [ng/mL] | Concentration, initial solution (IS) [2, 7] [ng/mL] | Bioaccessibility (%), initial solution (IS) [2, 7] | Bioaccessibility (%), intestinal phase (I) [2, 8] | Concentration, intestinal phase (I) [2, 8] [ng/mL] | Bioaccessibility (%), oral phase (O) [2, 9] | Concentration, oral phase (O) [2, 9] | Concentration, gastric phase (G) [2, 10] [ng/mL] | Concentration, intestinal phase (I) [2, 11] [ng/mL] | Concentration, oral phase (O) [2, 12] [µg/mL] | Bioaccessibility (%), gastric phase (G) [2, 13] | Bioaccessibility (%), intestinal phase (I) [2, 14] | Bioaccessibility (%), oral phase (O) [2, 15] | Concentration, initial solution (IS) [2, 16] [ng/mL] | Bioaccessibility (%), initial solution (IS) ([2]; samples, initial solution) | Concentration, dialysis phase (D) [3] | permeability class from Papp, apical-to-basolateral direction (Caco-2 cell monolayers) | other results |
| --- | --- | --- | --- | --- | --- | --- | --- | --- | --- | --- | --- | --- | --- | --- | --- | --- | --- | --- | --- | --- |
| O=c1cc(-c2ccc(O)cc2)oc2cc(O)cc(O)c12 [APG, apigenin] | 127.10 ± 1.17 ^a,b % | 15.20% and 15.20 ± 3.04 ^d % | 1420 ± 280 | 9330 | 100 ^c % | 158.32 ± 5.05 ^a % | 14780 ± 470 | 134.98 ± 8.17 ^b % | 12.60 ± 0.76 µg/mL | 2580 ± 470 | 13740 ± 1220 | 11.86 ± 0.11 | 27.60% and 27.60 ± 5.02^ c % | 147.20% and 147.20 ± 13.05 ^a % | 127.10% | 9330 | 100 ^b % |  |  | bioaccessible fraction after intestinal digestion relative to the gastric phase [1]: 2 fold |
| O=C(CCc1ccc(O)cc1)c1c(O)cc(O)cc1O [PH, phloretin] | 96.46 ± 10.69^ a % | 91.73% and 91.73 ± 13.24 ^a,b % | 264550 ± 38180 | 288390 | 100 ^a,b % | 58.91% and 58.91 ± 16.19 ^b % | 169910 ± 46690 | 111.74% and 111.74 ± 7.23^ a % | 322.24 ± 20.85 µg/mL | 210150 ± 21970 | 148670 ± 32070 | 278.19 ± 30.82 | 72.87 ± 7.62 ^a,b % | 51.55% and 51.55± 11.12 ^b % | 96.46% | 288390 | 100^ a % | 17180 ± 2010 ng/mL | low-permeable | Concentration, dialysis phase (D) ([3]; pig): 26350 ± 10090 ng/mL |
| O=c1c(O)c(-c2ccc(O)c(O)c2)oc2cc(O)cc(O)c12 [QUE, quercetin] | 57.23 ± 6.98^ b % |  |  | 39890 | 100% | 17.59 ± 1.70% | 7020 ± 700 |  | 13.64** μg mL^-1 | 2740 ± 630 | 7330 ± 100 | 22.83 ± 2.78 | 6.87% and 6.87 ± 1.57^ c % | 18.36% and 18.36 ± 0.26^ c % | 57.23% | 39890 | 100^ a % | below the detection limit | low-permeable | solubility ([4]; pH 1.5): 5.5 µg/mL (≈ 18.2 µM); solubility ([4]; pH 7.5): 28.9 µg/mL (≈ 95.6 µM); Intestinal absorption (IA%) [3]: very high |
| C[C@@H]1O[C@@H](OC[C@H]2O[C@@H](Oc3c(-c4ccc(O)c(O)c4)oc4cc(O)cc(O)c4c3=O)[C@H](O)[C@@H](O)[C@@H]2O)[C@H](O)[C@H](O)[C@H]1O [RUT, rutin] |  | 97.20 ± 2.29 ^a,b % | 317060 ± 7460 | 326190 | 100 ^a,b % | 87.44 ± 5.94 ^b % | 285210 ± 19380 | 101.57 ± 2.61^ a % | 331.30 ± 8.52 µg/mL | 320450 ± 11330 | 265680 ± 13370 | 281.60 ± 67.69 | 98.24% and 98.24 ± 3.47^ a % | 81.45% and 81.45 ± 4.10^ a % | 86.33% and 86.33 ± 20.75^ a % | 326190 | 100^ a % |  | low-permeable | formation of metabolites during in vitro SGD (UHPLC-DAD-MSn) ([2]; samples with enzymes): produced a metabolite after intestinal digestion simulation; percentage collected from inside of dialysis membrane ([5]; after in vitro gastrointestinal digestion): 1.65%; IA% ([5]; dialysis membrane): about 98%; Concentration, dialysis phase (D) ([3]; controls (without enzymes), aliquot from inside the dialysis membrane): 15120 ± 5540 ng/mL; Intestinal absorption (IA%) ([3]; controls (without enzymes), dialysis membrane): 94.75% and 94.75 ± 1.72%; Concentration, dialysis phase (D) ([3]; samples with enzymes, aliquot from inside the dialysis membrane): 22240 ± 1520 ng/mL; Intestinal absorption (IA%) ([3]; samples with enzymes, dialysis membrane): 91.63% and 91.63 ± 0.28% |
